Marks after values point to notes of the source that are not given here.
Key:
[1] = system: tongue of human volunteers; test: Cooling sensations when applied to the tongue of human volunteers; type: in vivo; conditions: for Duration of Action: duration of the cooling action on the tongue; for Relative Potency: reciprocal of threshold, normalized to unity for analogs with 1.25 μg/ml; for Threshold: threshold for producing cooling sensations on the tongue of human volunteers
Description: (§1) The therapeutic concentrations of the preferred analogs are in the range of 10 to 80 μg/ml […], but concentrations as low as 0.1 μg/ml may elicit effects in sensitive individuals.

[2] = system: medial canthus of the eyelids; test: Sensory quality of the solution on the medial canthus of the eyelids / eye surface; type: in vivo, human; conditions: solution applied on the medial canthus of the eyelids
Description: [table] In selecting a particular analog, it is desirable to have one that has a long duration of action (several hours) and minimal stinging and burning sensations. These parameters are not predicted by the cooling effect of these substances on the human tongue, but must be determined by experiment. […] Thus, the hexyl analog is the preferred therapeutic of the two. The other particularly preferred analogs that have the desired qualities of long duration of action and absence of stinging and burning effects are identified with an asterisk in Table 1.

eye disorders = test: Estimate of ideal therapeutic eye drop concentration to relieve eye disorders; type: in vivo, human; conditions: estimate of ideal therapeutic concentration applied as eye drops to relieve eye disorders
Description: as §1
The potency of certain specific trialkyl phosphine oxides, e.g. isopropyl, sec-butyl, n-octyl-phosphine oxide, in relieving eye discomfort is exceptionally high, on the order of 0.001%. In such situations, an alternative preferred description of an effective unit dose is 0.01 mg/ml or 10 μg/ml, which is equivalent to 0.001% weight percent.

conjunctivitis = test: Eye drops in subjects with allergic conjunctivitis; type: in vivo, human; conditions: for stinging sensations: 0.1% solution, medial canthus/closed eye, about every 8 hours
Description: A subject, suffered from seasonal allergy. During the months of March through May, they would wake up in the morning sneezing, with a runny nose, and itchy eyes. The rhinitis, nasal congestion and obstruction were relieved to some extent by taking a Claritin® antihistamine tablet, but the symptoms of itchy, tearing, and red eyes were not. This individual applied, by the medial canthus/closed eye method in which they had been instructed, several drops of a 0.1% solution disec-butyl-n-pentyl-phosphine oxide ophthalmic eye drop solution, into each eye about every 8 hours for two days. […] They felt more clear-sighted and vigilant, and was of the opinion that the eye drops had therapeutic value for their conjunctivitis. Similar results were obtained with 3 additional subjects suffering from ocular allergies. A subject, suffered from perennial rhinitis that was aggravated by sinusitis, nasal surgery, and a prolonged course of antibiotics. They developed a generalized allergic condition with severe itchy rash on their back, dermatitis on their face (especially on their cheeks), and had itchy, puffy and red eyes. This individual applied, by the medial canthus/closed eye method in which they had been instructed, several drops of a 0.1% solution disec-butyl-pentyl-phosphine oxide ophthalmic solution into each eye for about every 8 hours for three days. […] The subject was of the opinion that the eye drops had therapeutic value for their conjunctivitis.

[3] = system: opened eyes of volunteers; test: Eye drops applied directly to the opened eyes of volunteers; type: in vivo, human
Description: (§2) For trialkyl phosphine oxide eye drop solutions of this invention, I have discovered an indirect method of application as follows. The eye dropper is aimed at the medial canthus (nasal corner) of the eye, the eye is then closed, the dispenser is squeezed to emit the eye drops, and the eye kept closed for about 1 min. This method of application can substantially avoid stinging and burning sensations. Apparently, the adaptation period of about 1 min allows the sensory processes to develop tolerance to the initial stinging and burning stimuli. For example, if a 0.4 mg/ml solution of disec-butyl, n-hexyl-phosphine oxide [synonym, 1-(Di-sec-butyl-phosphinoyl)-hexane] in isotonic-buffered saline is dropped on the open eye, it causes stinging and burning for about 1 min. However, applied onto the corners of the eye, with the eyes closed for 1 min, these stinging and burning sensations are avoided. The medial canthus is preferred to the lateral canthus because the geometry of the orbit permits a longer residence time for the eye drop applied to the medial corner. Drops applied to the lateral canthus are less precisely located and rapidly dribble off the zygoma (cheekbone). A user can be instructed in this indirect method by including the instructions on packaging labels and/or inserts associated with the doses.
A 0.05% (0.5 mg/ml) disec-butyl-n-hexyl-phosphine oxide eye drop solution was prepared by adding the compound to an isotonic solution of sodium chloride, 0.65% in deionized water, monobasic potassium phosphate/sodium hydroxide buffer, preserved with disodium EDTA and benzalkonium chloride. The liquid was individually aliquoted into a ¼ oz. bottle with a Yorker spout (E.D. Luce Packaging) suitable for droplet delivery. This solution was applied to the opened eyes of three volunteers, with two to three drops of the solution applied to each eye. The subjects complained of stinging and burning sensations on the eye surface, lasting for about 2 min and requiring the subjects to shut their eyes. […]

[4] = system: closed eyes of volunteers; test: Eye drops applied to medial canthus of closed eyes, kept closed about 1 min; type: in vivo, human
Description: as §2
The solution, as in Example 1, was then used by another three subjects with the instruction to apply the droplets to the nasal corner of the eye (medial canthus), without touching the tip of the dispenser to the eyelid surface, to let the solution seep into the eyelids and eye surface but to keep eyes closed for at least one minute. The subjects reported slight sensations of stinging when the eyes were opened, effects that lasted for less than 1 minute, followed by sensations of coolness and comfort lasting at least two hours. The experiment was then repeated, but with a higher concentration of 0.2% of disec-butyl-n-hexyl-phosphine oxide.
A 0.2% (2.0 mg/ml) disec-butyl-n-heptyl-phosphine oxide eye drop solution was prepared by adding the compound to an isotonic solution of sodium chloride, 0.65% in deionized water, monobasic potassium phosphate/sodium hydroxide buffer, preserved with disodium EDTA and benzalkonium chloride. The liquid was individually aliquoted into a ¼ oz. bottle with a Yorker spout (E.D. Luce Packaging) suitable for droplet delivery. This solution was then applied to the closed eyes of three volunteers, with two to three drops of the solution applied to each eye. The subjects complained of stinging and burning sensations on the eye surface, lasting for about 2 min. A series of six solutions were then prepared in which six different hydrocarbon polyols were added to the parent 0.2% solution. The individual additions were 1.5% sucrose, 1.5% fructose, 1.5% dextrose, 1.5% lactose, 1.5% inositol, or 0.5% carboxymethylcellulose. […] There was some tearing, but no evidence of increased eye redness from the hydrocarbon polyols and subjective complaints of discomfort were minimal.

skin of upper eyes = test: Application to skin of the upper eyes by swabstick (eye strain, contact lens user); type: in vivo, human
Description: Another modification of drug delivery was discovered. […] Example 4 notes that topical application of a 5% solution of a trialkyl phosphine oxide dissolved in pure propylene glycol produces robust cooling when applied in this manner.
A subject was stuck in traffic for over 2 hours on a hot and sunny (95° to 97° F.) day in an old car without air-conditioning. They were a user of soft contact lenses. […] They wanted to go on-line to work on a database project, but their eyestrain hindered their ability to focus. They volunteered to apply onto the skin of their upper eyes a 5% solution of disec-butyl-n-hexyl-phosphine oxide dissolved in 100% propylene glycol. A cotton swabstick was used to dab the solution onto the surfaces of the skin with extra care not touch the margins of the eyelids or eye surface. After drug application, a robust cooling sensation developed in the eyes that lasted for about 3 hours. […] They also reported that they felt more alert and energetic.

dry eyes = test: Eye drops in contact lens user with dry eyes; type: in vivo, human; conditions: 0.2% solution with 0.5% carboxymethylcellulose
Description: The subject of example 4 is a daily user of disposable soft contact lenses, has “dry eyes”, and is a constant user of Refresh Eyes®, an artificial tears solution with 0.5% carboxymethylcellulose stored in a unit dispenser. They were instructed on how to instill the eye drops into the nasal corner (medial canthus) of their closed eyes and how to avoid the initial discomforts of the solution. The subject, who is an internationally-ranked tennis player, volunteered to self-administer, by the medial canthus/closed eye method, a 0.2% solution disec-butyl-n-hexyl-phosphine oxide ophthalmic solution containing 0.5% carboxymethylcellulose.

ocular pain = test: Eye drops for ocular pain after refractive eye surgery (LASIK); type: in vivo, human
Description: A subject, underwent bilateral refractive eye surgery (LASIK) for myopia in order to maintain their qualifications for special duties in the military. On the first day after surgery their eye surfaces and eyelids were bright red from dilated and enlarged blood vessels, but there was little pain. However, on the second day, the individual suffered excruciating pain from their eyes that was incapacitating and prevented them from going to work. This individual volunteered to apply eye drops of a 0.05% solution disec-butyl-n-hexyl-phosphine oxide ophthalamic into each eye for about every 6 hours for three days. They were instructed on how to instill the eye drops into the nasal corner (medial canthus) of their closed eyes and how to avoid the initial discomforts of the solution. […] They felt much better and was of the opinion that the eye drops had therapeutic value for ocular pain.

[5] = 0.1% solution every 8 hours for two days, seasonal allergy
[6] = 0.2% solution, medial canthus/closed eye

SMILES: CCCCCP(=O)(C(C)CC)C(C)CC (stereo not shown) [n-C5H11 / sec-C4H9 / sec-C4H9, disec-butyl-n-pentyl-phosphine oxide]
- Duration of Action [1]: 10 min
- Relative Potency [1]: 1
- Threshold [1]: 1.25 µg/mL
- Sensory Quality [2]: cool only
- Eye Therapy (eye disorders): 60* μg/ml
- effect on eye discomfort (conjunctivitis; 0.1% solution every 8 hours for three days, generalized allergic condition): relief of discomfort
- itching (conjunctivitis; [5]): substantially reduced
- redness (conjunctivitis; [5]): diminished
- stinging sensations (conjunctivitis): initial mild sensation of “stinging”
- stinging sensations (conjunctivitis; listed as disec-butyl-pentyl-phosphine oxide): No significant stinging sensations

SMILES: CCCCCCP(=O)(C(C)CC)C(C)CC (stereo not shown) [n-C6H13 / sec-C4H9 / sec-C4H9, 1-(Di-sec-butyl-phosphinoyl)-hexane]
- Duration of Action [1]: 20 min
- potency on the human tongue (comparison of the two analogs) ([1]; hexyl vs heptyl analog): about equipotent
- Relative Potency [1]: 1
- Threshold [1]: 1.25 µg/mL
- Sensory Quality [2]: cool/sting
- Eye Therapy (eye disorders): 45 µg/mL
- duration of stinging and burning ([3]; 0.4 mg/ml in isotonic-buffered saline dropped on the open eye): about 1 min
- duration of stinging and burning sensations on the eye surface ([3]; 0.05% (0.5 mg/ml) solution, 2-3 drops, opened eyes, three volunteers): about 2 min
- redness / vasodilatation on eye surface or eyelids ([3]; 0.05% solution, opened eyes): no evidence of increased redness
- stinging and burning sensations ([4]; 0.4 mg/ml applied onto corners of the eye, eyes closed for 1 min): avoided
- duration of slight stinging when eyes were opened ([4]; 0.05% solution, medial canthus, eyes closed at least one minute, three subjects): less than 1 minute
- duration of sensations of coolness and comfort ([4]; 0.05% solution, medial canthus/closed eye): at least two
- sensations of stinging and burning vs 0.05% [4, 6]: slightly increased
- tearing, irritation or redness [4, 6]: no signs of tearing was observed, nor of signs of irritation or redness
- duration of robust cooling sensation in the eyes (skin of upper eyes; 5% solution in 100% propylene glycol dabbed on skin of upper eyes, one subject): about 3 hours
- effect on eye fatigue, irritation and discomfort (skin of upper eyes; 5% solution in 100% propylene glycol on skin of upper eyes): alleviated their sense of eye fatigue, irritation, and discomfort
- effect on eye dryness (subject's opinion) (dry eyes): useful to alleviate eye dryness
- tearing (dry eyes): no increased tearing
- reported sensations (dry eyes; medial canthus/closed eye, one subject): slight tingling in their eyelids followed by refreshing sensations in their eyelids and eye surface
- adverse effects (ocular pain; 0.05% solution about every 6 hours for three days after LASIK): no significant adverse effects
- acute pain from the eye surface (ocular pain; 0.05% solution about every 6 hours for three days, second day after LASIK, medial canthus/closed eye): significantly diminished within minutes
